Data from ChEMBL document CHEMBL1136341, “Synthesis and evaluation of chiral bicyclic proline FKBP12 ligands” (Bioorg Med Chem Lett, 2003).
pIC50: −log10 of the molar value.

Assay: In vitro binding affinity towards FKBP12 domain of peptidyl-propyl isomerase (PPIase)

Compound COc1cc(C(=O)C(=O)N2C3CCCC2C(=O)OCCCCOC3=O)cc(OC)c1OC has a pIC50 of 9.55.
In the case of O=C(OCCCc1ccccc1)[C@@H]1C2CCC(C2)N1S(=O)(=O)Cc1ccccc1 (stereo partly specified), the pIC50 was 5.89.
In the case of CCC(C)(C)C(=O)C(=O)N1C2CCC(C2)[C@@H]1C(=O)SCCC(c1ccccc1)c1ccccc1 (stereo partly specified), the pIC50 was < 4.60.
Compound O=C1CC2CCCC(Sc3ccccc3)(C1)C2 (stereo unspecified) has a pIC50 of 8.04.
O=C(SCCCc1ccccc1)[C@@H]1C2CCC(C2)N1S(=O)(=O)Cc1ccccc1 (stereo partly specified) showed a pIC50 of 6.14.
In the case of CCC(C)(C)C(=O)C(=O)N1C2CCC(C2)[C@H]1C(=O)SCCCc1ccccc1 (stereo partly specified), the pIC50 was 5.64.
For CCC(C)(C)C(=O)C(=O)N1C2CCC(C2)[C@@H]1C(=O)OCCCc1ccncc1 (stereo partly specified), the pIC50 was < 4.60.
With CCC(C)(C)C(=O)C(=O)N1C2CCC(C2)[C@@H]1C(=O)OCCCCc1ccccc1 (stereo partly specified) the pIC50 was 5.29.
Compound O=C(OCCCc1ccccc1)[C@@H]1C2CCC(C2)N1S(=O)(=O)c1ccccc1 (stereo partly specified) has a pIC50 of 6.19.
For CCC(C)(C)C(=O)C(=O)N1C2CCC(C2)[C@@H]1C(=O)OCCCc1ccccc1 (stereo partly specified), the pIC50 was < 4.60.
In the case of CCC(C)(C)C(=O)C(=O)N1C2CCC(C2)[C@@H]1C(=O)SCCCc1ccccc1 (stereo partly specified), the pIC50 was 4.66.
For CCC(C)(C)C(=O)C(=O)N1C2CCC(C2)[C@H]1C(=O)OCCCCc1ccccc1 (stereo partly specified), the pIC50 was 6.15.
With CCC(C)(C)C(=O)C(=O)N1C2CCC(C2)[C@H]1C(=O)SCCC(c1ccccc1)c1ccccc1 (stereo partly specified) the pIC50 was 6.01.
Work on O=C(SCCCc1ccccc1)[C@@H]1C2CCC(C2)N1S(=O)(=O)c1ccccc1 (stereo partly specified) yielded a pIC50 of 6.04.
In the case of CCC(C)(C)C(=O)C(=O)N1C2CCC(C2)[C@H]1C(=O)OCCCc1ccncc1 (stereo partly specified), the pIC50 was 4.82.
CCC(C)(C)C(=O)C(=O)N1C2CCC(C2)[C@H]1C(=O)OCCCc1ccccc1 (stereo partly specified) gave a pIC50 of 6.17.
